The target in assay [1] is T1, haspin (Homo sapiens, UniProt Q8TF76).
T1 sequence (Q8TF76 1-798): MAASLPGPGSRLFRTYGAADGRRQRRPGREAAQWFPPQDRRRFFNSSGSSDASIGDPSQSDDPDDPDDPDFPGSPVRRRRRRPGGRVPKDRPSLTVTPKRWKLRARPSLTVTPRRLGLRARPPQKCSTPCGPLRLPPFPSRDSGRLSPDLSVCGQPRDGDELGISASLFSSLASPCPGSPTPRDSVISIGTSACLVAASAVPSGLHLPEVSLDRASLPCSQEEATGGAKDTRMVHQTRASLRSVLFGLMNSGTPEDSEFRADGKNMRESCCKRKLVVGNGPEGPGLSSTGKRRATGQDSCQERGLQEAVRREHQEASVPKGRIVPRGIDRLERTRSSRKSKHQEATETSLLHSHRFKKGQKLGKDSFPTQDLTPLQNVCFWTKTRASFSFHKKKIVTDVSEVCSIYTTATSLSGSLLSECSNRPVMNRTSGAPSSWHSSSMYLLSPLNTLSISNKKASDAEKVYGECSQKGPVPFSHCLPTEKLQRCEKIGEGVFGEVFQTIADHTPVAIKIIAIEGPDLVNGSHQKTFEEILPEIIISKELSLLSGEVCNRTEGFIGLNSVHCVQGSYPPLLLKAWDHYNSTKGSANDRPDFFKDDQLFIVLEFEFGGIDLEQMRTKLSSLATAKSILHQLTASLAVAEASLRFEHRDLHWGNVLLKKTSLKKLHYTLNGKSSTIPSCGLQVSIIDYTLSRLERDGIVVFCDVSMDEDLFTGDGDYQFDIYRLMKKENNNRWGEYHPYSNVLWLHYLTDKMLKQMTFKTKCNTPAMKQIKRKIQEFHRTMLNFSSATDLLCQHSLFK
As to the kind of experiment: Haspin binding Kd (Eurofins). Further details: purchased Eurofins (contract research service).

For assay [2], the target named is T2, FLT3-D835Y (Homo sapiens, UniProt P36888, D835Y).
T2 construct: purchased Reaction Biology (contract research service)
T2 sequence (P36888 27-993 D835Y): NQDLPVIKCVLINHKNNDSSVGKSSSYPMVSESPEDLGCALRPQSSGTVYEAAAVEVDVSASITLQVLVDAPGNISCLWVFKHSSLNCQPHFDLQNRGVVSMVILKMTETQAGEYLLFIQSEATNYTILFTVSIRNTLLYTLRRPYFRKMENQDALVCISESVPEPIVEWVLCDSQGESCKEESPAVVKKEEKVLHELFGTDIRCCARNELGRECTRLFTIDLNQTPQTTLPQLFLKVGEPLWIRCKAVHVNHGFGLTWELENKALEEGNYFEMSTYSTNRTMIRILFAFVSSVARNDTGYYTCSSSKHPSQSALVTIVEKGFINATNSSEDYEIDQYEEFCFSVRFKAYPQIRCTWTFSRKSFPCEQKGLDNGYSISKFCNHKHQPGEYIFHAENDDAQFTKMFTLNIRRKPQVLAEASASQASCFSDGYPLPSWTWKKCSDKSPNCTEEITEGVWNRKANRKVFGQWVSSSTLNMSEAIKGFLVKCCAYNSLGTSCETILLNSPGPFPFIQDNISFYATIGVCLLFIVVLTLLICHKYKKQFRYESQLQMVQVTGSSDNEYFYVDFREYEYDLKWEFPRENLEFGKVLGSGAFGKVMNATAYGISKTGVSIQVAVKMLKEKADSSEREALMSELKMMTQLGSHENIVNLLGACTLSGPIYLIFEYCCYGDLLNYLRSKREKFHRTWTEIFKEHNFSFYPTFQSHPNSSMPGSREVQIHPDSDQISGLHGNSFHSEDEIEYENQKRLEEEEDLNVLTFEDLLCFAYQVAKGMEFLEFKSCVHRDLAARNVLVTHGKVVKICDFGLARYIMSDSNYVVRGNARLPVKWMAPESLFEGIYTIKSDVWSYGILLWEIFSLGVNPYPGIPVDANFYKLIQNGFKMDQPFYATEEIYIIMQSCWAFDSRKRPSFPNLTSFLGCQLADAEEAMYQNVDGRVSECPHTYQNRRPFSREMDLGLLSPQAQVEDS
As to the kind of experiment: FLT3 (D835Y) enzyme inhibition, 10-dose IC50 (Reaction Biology). It is filed as biochemical. The following applies: 10 μM ATP.

A word on the Kd: it is the concentration at which binding is half-saturated. Read a low Kd as higher affinity. For orientation: IC50 means the concentration at which inhibition is half-maximal. A high value points to weaker potency in that assay. `Cc1c[nH]c(CNC(=O)c2ccc(-c3nc4ccc5[nH]ncc5c4c4c3CCCC4)cc2)n1` [Compound HSK205] showed a dissociation constant (Kd) in assay [1] of 0.55 nM. In assay [2], this compound displayed an IC50 of less than 0.5 nM.

Source of the values: patent US20250320203A1, “4-(3H-PYRAZOLO[4,3-F]QUINOLIN-7-YL)-N-(2-(DIMETHYLAMINO)ETHYL)BENZAMIDE- OR HYDROXAMIC ACID COMPOUNDS, COMPOSITIONS, AND METHODS OF USE” (Purdue Research Foundation, priority 2022, published 2025).
